Data taken from patent US20230203081A1, “LINCOSAMIDE ANTIBIOTICS AND USES THEREOF” (President and Fellows of Harvard College, priority 2020, published 2023).
Values after ≈ are worked out from the molar mass of the structure shown.

What was measured:
Format in all cases: cell-based
[1] = test system: broad panel of different clinical isolates; assay: microbe, parasite or virus in culture
Outline: (§1)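 Per CLSI, MICs by broth microdilution or agar dilution; strains other than streptococci and anaerobes were sub-cultured overnight at 35° C on blood agar, with a final broth inoculum of 5×10^5 CFU/mL.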

E. faecalis ATCC 29212 = assay: MIC (broth microdilution or agar dilution, CLSI); details: Enterococcus faecalis, ATCC29212, E. faecalis HAV#005, ATCC 29212; read-out: MIC
Outline: as §1

[2] = test system: E. faecalis MMX 847; cErmB; assay: MIC (broth microdilution or agar dilution, CLSI); details: Enterococcus faecalis; E. faecalis HAV#036, MMX 847; mac-resistant, cErmB; read-out: MIC
Outline: as §1

K. oxytoca Clinical = assay: MIC (broth microdilution or agar dilution, CLSI); details: Klebsiella oxytoca; K. oxytoca HAV#450; Clinical; read-out: MIC
Outline: as §1

S. aureus ATCC 29213 = assay: MIC (broth microdilution or agar dilution, CLSI); details: Staphylococcus aureus, ATCC29213, S. aureus HAV#001, ATCC 29213, MP-549; read-out: MIC
Outline: as §1

S. aureus ATCC 700699 = assay: MIC (broth microdilution or agar dilution, CLSI); details: Staphylococcus aureus; S. aureus HAV#202, ATCC 700699 (VISA); read-out: MIC
Outline: as §1

[3] = test system: S. aureus ATCC BAA-1707 (MRSA); assay: MIC (broth microdilution or agar dilution, CLSI); details: Staphylococcus aureus; S. aureus HAV#016, ATCC BAA-1707; MRSA; read-out: MIC
Outline: as §1

S. aureus MMX 3035 cErmA = assay: MIC (broth microdilution or agar dilution, CLSI); details: Staphylococcus aureus, MMX3035CERMA; S. aureus HAV#031, MMX 3035; cErmA; read-out: MIC
Outline: as §1

S. aureus hVISA = assay: MIC (broth microdilution or agar dilution, CLSI); details: Staphylococcus aureus; S. aureus HAV#204, hVISA; read-out: MIC
Outline: as §1

S. pneumoniae ATCC 49619 = assay: MIC (broth microdilution or agar dilution, CLSI); details: Streptococcus pneumoniae, ATCC49619, S. pneumoniae HAV#003, ATCC 49619; read-out: MIC
Outline: as §1

S. pneumoniae ATCC 6303 = assay: MIC (broth microdilution or agar dilution, CLSI); details: Streptococcus pneumoniae, ATCC6303; S. pneumoniae HAV#351, ATCC 6303; read-out: MIC
Outline: as §1

[4] = test system: S. pneumoniae MMX 3028 cErmB; assay: MIC (broth microdilution or agar dilution, CLSI); details: Streptococcus pneumoniae, MMX3028CERMB; S. pneumoniae HAV#033; MMX 3028, cErmB; read-out: MIC
Outline: as §1

[5] = test system: S. pneumoniae MMX 3031 cMefA; assay: MIC (broth microdilution or agar dilution, CLSI); details: Streptococcus pneumoniae, MMX3031CMEFA, S. pneumoniae HAV#034; MMX 3031, cMefA; read-out: MIC
Outline: as §1

S. pyogenes ATCC 19615 = assay: MIC (broth microdilution or agar dilution, CLSI); details: Streptococcus pyogenes, ATCC19615, S. pyogenes HAV#004, ATCC 19615; read-out: MIC
Outline: as §1

[6] = test system: S. pyogenes MMX 946; cErmB; assay: MIC (broth microdilution or agar dilution, CLSI); details: Streptococcus pyogenes; S. pyogenes HAV#035, MMX 946; cErmB, mac-resistant; read-out: MIC
Outline: as §1

C[C@H]1c2cccc(O)c2C(=O)C2=C(O)[C@]3(O)C(=O)C(C(N)=O)=C(O)[C@@H](N(C)C)[C@@H]3[C@@H](O)[C@@H]21 [Doxycycline]
MIC ([1]; Acinetobacter baumannii, A. baumannii HAV#651, Clinical): 0.125 µg/mL (≈ 0.281 µM) | MIC ([1]; Acinetobacter baumannii, A. baumannii HAV#652 Clinical): 0.5 µg/mL (≈ 1.13 µM) | MIC ([1]; Acinetobacter baumannii, A. baumannii HAV#653, Clinical): 0.125 µg/mL (≈ 0.281 µM) | MIC ([1]; Acinetobacter baumannii, A. baumannii HAV#654, Clinical): < 0.06 µg/mL | MIC ([1]; Acinetobacter baumannii, A. baumannii HAV#655, Clinical): 0.5 µg/mL (≈ 1.13 µM) | MIC ([1]; Acinetobacter baumannii, A. baumannii HAV#656, Clinical): 32 µg/mL (≈ 72 µM) | MIC ([1]; Acinetobacter baumannii, A. baumannii HAV#657, Clinical): 0.5 µg/mL (≈ 1.13 µM) | MIC ([1]; Acinetobacter baumannii, A. baumannii HAV#658, Clinical): 0.06 µg/mL (≈ 0.135 µM) | MIC ([1]; Acinetobacter baumannii, A. baumannii HAV#659, Clinical): 0.5 µg/mL (≈ 1.13 µM) | MIC ([1]; Acinetobacter baumannii, A. baumannii HAV#660, Clinical): 1 µg/mL (≈ 2.25 µM) | MIC ([1]; Acinetobacter baumannii, A. baumannii HAV#661, Clinical): 0.125 µg/mL (≈ 0.281 µM) | MIC ([1]; Acinetobacter baumannii, A. baumannii HAV#662, Clinical): 0.25 µg/mL (≈ 0.563 µM) | MIC ([1]; Acinetobacter baumannii, A. baumannii HAV#663, Clinical): 0.125 µg/mL (≈ 0.281 µM) | MIC ([1]; Acinetobacter baumannii, A. baumannii HAV#664, Carbapenem R): 2 µg/mL (≈ 4.5 µM) | MIC ([1]; Enterococcus faecalis, E. faecalis HAV#602, Clincal): 0.25 µg/mL (≈ 0.563 µM) | MIC ([1]; Enterococcus faecalis, E. faecalis HAV#607, Clinical): 1 µg/mL (≈ 2.25 µM) | MIC ([1]; Enterococcus faecalis, E. faecalis HAV#608, Clinical): 0.5 µg/mL (≈ 1.13 µM) | MIC ([1]; Enterococcus faecalis, E. faecalis HAV#609, Clinical): 8 µg/mL (≈ 18 µM) | MIC ([1]; Enterococcus faecalis, E. faecalis HAV#610, Clinical): 0.5 µg/mL (≈ 1.13 µM) | MIC ([1]; Enterococcus faecalis, S. faecalis 5074, Line R): 64 µg/mL (≈ 144 µM) | MIC ([1]; Enterococcus faecalis, VRE, E. faecalis HAV#251, Clinical VRE): 0.125 µg/mL (≈ 0.281 µM) | MIC ([1]; Enterococcus faecalis, VRE, E. faecalis HAV#606, Clinical): 16 µg/mL (≈ 36 µM) | MIC ([1]; Enterococcus faecium, E. faecium HAV#317, Clinical): 0.25 µg/mL (≈ 0.563 µM) | MIC ([1]; Enterococcus faecium, E. faecium HAV#324, Clinical): 0.25 µg/mL (≈ 0.563 µM) | MIC ([1]; Enterococcus faecium, E. faecium HAV#327, Clinical): 0.25 µg/mL (≈ 0.563 µM) | MIC ([1]; Enterococcus faecium, E. faecium HAV#328, Clinical): 0.25 µg/mL (≈ 0.563 µM) | MIC ([1]; Enterococcus faecium, E. faecium HAV#329, Clinical): 0.25 µg/mL (≈ 0.563 µM) | MIC ([1]; Enterococcus faecium, VRE, E. faecium HAV#318, VanA): 4 µg/mL (≈ 9 µM) | MIC ([1]; Enterococcus faecium, VRE, E. faecium HAV#319, Line R & Vanco R): 16 µg/mL (≈ 36 µM) | MIC ([1]; Enterococcus faecium, VRE, E. faecium HAV#320, Clinical): > 128 µg/mL | MIC ([1]; Escherichia coli, E. coli HAV#503, Clinical): 32 µg/mL (≈ 72 µM) | MIC ([1]; Escherichia coli, E. coli HAV#511, Clinical): 2 µg/mL (≈ 4.5 µM) | MIC ([1]; Escherichia coli, E. coli HAV#512, Clinical): 2 µg/mL (≈ 4.5 µM) | MIC ([1]; Escherichia coli, E. coli HAV#513, Clinical): 32 µg/mL (≈ 72 µM) | MIC ([1]; Escherichia coli, E. coli HAV#514, Clinical): 2 µg/mL (≈ 4.5 µM) | MIC ([1]; Escherichia coli, E. coli HAV#516, ESBL-producing): 8 µg/mL (≈ 18 µM) | MIC ([1]; Haemophilus influenzae, ATCC9007, H. influenzae HAV#376, ATCC-9007): 0.25 µg/mL (≈ 0.563 µM) | MIC ([1]; Klebsiella pneumoniae, K. pneumoniae HAV#404, Clinical): 4 µg/mL (≈ 9 µM) | MIC ([1]; Klebsiella pneumoniae, K. pneumoniae HAV#405, Clinical): 2 µg/mL (≈ 4.5 µM) | MIC ([1]; Klebsiella pneumoniae, K. pneumoniae HAV#406, Clinical): 2 µg/mL (≈ 4.5 µM) | MIC ([1]; Klebsiella pneumoniae, K. pneumoniae HAV#407, Clinical): 32 µg/mL (≈ 72 µM) | MIC ([1]; Klebsiella pneumoniae, K. pneumoniae HAV#408, Clinical): 32 µg/mL (≈ 72 µM) | MIC ([1]; Klebsiella pneumoniae, K. pneumoniae HAV#409, ESBL-producing): 16 µg/mL (≈ 36 µM) | MIC ([1]; Staphylococcus aureus, MRSA, S. aureus HAV#0107, MRSA Col(Colindale, England)): 64 µg/mL (≈ 144 µM) | MIC ([1]; Staphylococcus aureus, MRSA, S. aureus HAV#218, Line R): 16 µg/mL (≈ 36 µM) | MIC ([1]; Staphylococcus aureus, MRSA, S. aureus HAV#220, Line R): 8 µg/mL (≈ 18 µM) | MIC ([1]; Staphylococcus aureus, MSSA, S. aureus HAV#219, Line R): 1 µg/mL (≈ 2.25 µM) | MIC ([1]; Staphylococcus aureus, S. aureus HAV#051, mecA, norA, spcl, ermA, aad1, aac6′-aph2″): 0.5 µg/mL (≈ 1.13 µM) | MIC ([1]; Staphylococcus aureus, S. aureus HAV#052, mecA, norA, fosB, blaZ): 0.5 µg/mL (≈ 1.13 µM) | MIC ([1]; Staphylococcus aureus, S. aureus HAV#053 mecA, norA, fosB): 0.5 µg/mL (≈ 1.13 µM) | MIC ([1]; Staphylococcus aureus, S. aureus HAV#054, mecA, norA, spcl, aad1, fosB, ermA, aac6′-aph2″, blaZ): 2 µg/mL (≈ 4.5 µM) | MIC ([1]; Staphylococcus aureus, S. aureus HAV#211, Clinical): 4 µg/mL (≈ 9 µM) | MIC ([1]; Staphylococcus aureus, S. aureus HAV#212, Clinical): 0.25 µg/mL (≈ 0.563 µM) | MIC ([1]; Staphylococcus aureus, S. aureus HAV#213, Clinical): 0.125 µg/mL (≈ 0.281 µM) | MIC ([1]; Staphylococcus aureus, S. aureus HAV#214, Clinical): 0.25 µg/mL (≈ 0.563 µM) | MIC ([1]; Staphylococcus aureus, S. aureus HAV#215, Clinical): 0.25 µg/mL (≈ 0.563 µM) | MIC ([1]; Staphylococcus aureus, S. aureus HAV#216, Clinical, cfr): 0.25 µg/mL (≈ 0.563 µM) | MIC ([1]; Staphylococcus aureus, S. aureus HAV#217, cfr): 4 µg/mL (≈ 9 µM) | MIC ([1]; Staphylococcus aureus, VISA, S. aureus HAV#203, Clinical (VISA)): 8 µg/mL (≈ 18 µM) | MIC ([1]; Staphylococcus epidermidis, S. epidermidis HAV# 275 Clinical, cfr): 1 µg/mL (≈ 2.25 µM) | MIC ([1]; Staphylococcus epidermidis, S. epidermidis HAV# 276, cfr): 2 µg/mL (≈ 4.5 µM) | MIC ([1]; Staphylococcus epidermidis, S. epidermidis HAV#277, Line R): 8 µg/mL (≈ 18 µM) | MIC ([1]; Staphylococcus epidermidis, S. epidermidis HAV#278 Line R): 4 µg/mL (≈ 9 µM) | MIC ([1]; Staphylococcus epidermidis, S. epidermidis HAV#279, Line R): 32 µg/mL (≈ 72 µM) | MIC ([1]; Staphylococcus haemolyticus, S. haemolyticus 5052, Line R & Methicillin R): 4 µg/mL (≈ 9 µM) | MIC ([1]; Streptococcus pneumoniae, ATCC700673, S. pneumoniae HAV#352, ATCC 700673, MDR): 4 µg/mL (≈ 9 µM) | MIC ([1]; Streptococcus pneumoniae, ATCCBAA255, S. pneumoniae HAV#354, ATCC-BAA-255): 0.25 µg/mL (≈ 0.563 µM) | MIC ([1]; Streptococcus pneumoniae, ATCCBAA334, S. pneumoniae HAV#353, ATCC-BAA-334): 0.25 µg/mL (≈ 0.563 µM) | MIC ([1]; Streptococcus pneumoniae, S. pneumoniae HAV#356, Clinical): 2 µg/mL (≈ 4.5 µM) | MIC ([1]; Streptococcus pneumoniae, S. pneumoniae HAV#358, Clinical): 0.25 µg/mL (≈ 0.563 µM) | MIC (E. faecalis ATCC 29212): 4 µg/mL (≈ 9 µM) | MIC [2]: 16 µg/mL (≈ 36 µM) | MIC (K. oxytoca Clinical): 8 µg/mL (≈ 18 µM) | MIC (S. aureus ATCC 29213): 0.25 µg/mL (≈ 0.563 µM) | MIC (S. aureus ATCC 700699): 16 µg/mL (≈ 36 µM) | MIC [3]: 0.25 µg/mL (≈ 0.563 µM) | MIC (S. aureus MMX 3035 cErmA): 0.25 µg/mL (≈ 0.563 µM) | MIC (S. aureus hVISA): 16 µg/mL (≈ 36 µM) | MIC (S. pneumoniae ATCC 49619): 0.125 µg/mL (≈ 0.281 µM) | MIC (S. pneumoniae ATCC 6303): 0.125 µg/mL (≈ 0.281 µM) | MIC [4]: 1 µg/mL (≈ 2.25 µM) | MIC [5]: 0.125 µg/mL (≈ 0.281 µM) | MIC (S. pyogenes ATCC 19615): 0.125 µg/mL (≈ 0.281 µM) | MIC [6]: 0.125 µg/mL (≈ 0.281 µM)
